Laboratory results from publication PMC4153658, “A Pentasymmetric Open Channel Blocker for Cys-Loop Receptor Channels” (PLoS ONE, 2014).
“And” between values parts separate entries of the source, which are not always exact repeats. Identical values can stand only once. Like-named read-outs stand apart in the source and are kept apart here.

Assays:
[1] = test system: cysteine mutant α1β2γ2 GABAA receptors; assay: Protection of engineered cysteines from covalent modification by MTSET^+ + GABA; format: cell-based, rat; details: 1 mM inhibitor present during MTSET^+ + GABA application
Experimental: (§1) Capped cRNAs were synthesized from the linearized plasmids. A poly-A tail of about 400 residues was added to each transcript using yeast poly-A polymerase. The concentration of the cRNA was quantified on a formaldehyde gel using Radiant Red stain for visualization of the RNA. Known concentrations of RNA ladder were loaded as standard on the same gel. cRNAs were precipitated in ethanol/isoamylalcohol 19∶1, the dried pellet dissolved in water and stored at −80°C. Xenopus oocytes were prepared, injected and defollicated as described previously (Research approved by the Kantonstierarzt, Kantonaler Veterinärdienst Bern (Animal research permit BE98/12)). Briefly, Xenopus laevis oocytes were injected with 50 nL of the cRNA solution containing wild type or mutated α1, β2 and γ2 subunits at a concentration of 10 nM: 10 nM: 50 nM and then incubated in modified Barth's solution at 18°C for at least 24 h before the measurements. […] Currents were measured using a home-built two-electrode voltage clamp amplifier in combination with a XY-recorder or digitized using a PowerLab 2/20 (AD Instruments) using the computer program Chart. Tests with a model oocyte were performed to ensure linearity in the larger current range. […] Similar experiments were performed with picrotoxin. […]

[2] = test system: Glycine homomeric receptors; assay: Inhibition of homomeric glycine receptors expressed in Xenopus oocytes; format: cell-based; details: compared with GABAA receptors
[3] = target: T1, α1L263Cβ2γ2 GABAA receptor (Rattus norvegicus, UniProt P18508+P62813+P63138, L290C); assay: Two-electrode voltage clamp, mutant α1L263Cβ2γ2 in Xenopus oocytes; format: cell-based
T1 construct: expressed in transfected cells; host or cells: Xenopus laevis oocytes, cRNA injection
Experimental: as §1

[4] = test system: Glycine heteromeric receptors; assay: Inhibition of heteromeric glycine receptors expressed in Xenopus oocytes; format: cell-based; details: compared with GABAA receptors
[5] = target: T2, α1T267Cβ2γ2 GABAA receptor (Rattus norvegicus, UniProt P18508+P62813+P63138, T294C); assay: Two-electrode voltage clamp, mutant α1T267Cβ2γ2 in Xenopus oocytes; format: cell-based
T2 construct: expressed in transfected cells; host or cells: Xenopus laevis oocytes, cRNA injection
Experimental: as §1

[6] = target: T3, α1T264Cβ2γ2 GABAA receptor (Rattus norvegicus, UniProt P18508+P62813+P63138, T291C); assay: Two-electrode voltage clamp, mutant α1T264Cβ2γ2 in Xenopus oocytes; format: cell-based
T3 construct: expressed in transfected cells; host or cells: Xenopus laevis oocytes, cRNA injection
Experimental: as §1

[7] = target: T4, α1A253Cβ2γ2 GABAA receptor (Rattus norvegicus, UniProt P18508+P62813+P63138, A280C); assay: Two-electrode voltage clamp, mutant α1A253Cβ2γ2 in Xenopus oocytes; format: cell-based; details: read-out: IC50 mean ± SD for inhibition of GABA-activated current
T4 construct: expressed in transfected cells; host or cells: Xenopus laevis oocytes, cRNA injection
Experimental: as §1

[8] = test system: RDL Drosophila GABAA receptors, mutation A302S versus wild type; assay: Concentration inhibition curves in wild type and mutant RDL Drosophila GABAA receptor; format: cell-based; details: GABA EC10
ELIC = ELIC (Dickeya chrysanthemi, UniProt P0C7B7); details: read-out: Concentration required for half-maximal inhibition
Experimental: as §1

non-injected oocytes = assay: Currents induced in non-injected Xenopus oocytes; format: cell-based, Xenopus laevis; details: holding potential −80 mV
[9] = target: T5, α1T261Cβ2γ2 GABAA receptor (Rattus norvegicus, UniProt P18508+P62813+P63138, T288C); assay: Two-electrode voltage clamp, mutant α1T261Cβ2γ2 in Xenopus oocytes; format: cell-based; details: read-out: IC50 mean ± SD for inhibition of GABA-activated current
T5 construct: expressed in transfected cells; host or cells: Xenopus laevis oocytes, cRNA injection
Experimental: as §1

[10] = target: T6, α1β2γ2 rat GABAA receptors (Rattus norvegicus, UniProt P18508+P62813+P63138); format: cell-based; details: for IC50: GABA EC10
T6 construct: expressed in transfected cells; host or cells: Xenopus laevis oocytes, cRNA injection
Experimental: (§2) Capped cRNAs were synthesized from the linearized plasmids. A poly-A tail of about 400 residues was added to each transcript using yeast poly-A polymerase. The concentration of the cRNA was quantified on a formaldehyde gel using Radiant Red stain for visualization of the RNA. Known concentrations of RNA ladder were loaded as standard on the same gel. cRNAs were precipitated in ethanol/isoamylalcohol 19∶1, the dried pellet dissolved in water and stored at −80°C. Xenopus oocytes were prepared, injected and defollicated as described previously (Research approved by the Kantonstierarzt, Kantonaler Veterinärdienst Bern (Animal research permit BE98/12)). Briefly, Xenopus laevis oocytes were injected with 50 nL of the cRNA solution containing wild type or mutated α1, β2 and γ2 subunits at a concentration of 10 nM: 10 nM: 50 nM and then incubated in modified Barth's solution at 18°C for at least 24 h before the measurements. […] Currents were measured using a home-built two-electrode voltage clamp amplifier in combination with a XY-recorder or digitized using a PowerLab 2/20 (AD Instruments) using the computer program Chart. Tests with a model oocyte were performed to ensure linearity in the larger current range. […] Similar experiments were performed with picrotoxin. Due to the difficulty of washing out picrotoxin out from the oocytes two different oocytes were used to test the inhibition before and after the treatment with the cysteine reactive compound. Inhibition after treatment was divided by % inhibition before treatment. To test the ability of PCCP^− to protect the engineered cysteines from covalent modification by MTSET^+, we used the same sequence of perfusion except that MTSET^+ was co-applied with 1 mM PCCP^−. Results were obtained on 3–4 single oocytes for each receptor.

[11] = test system: α1T260Cβ2γ2 GABAA receptor; format: cell-based, rat
Experimental: as §2

[12] = target: T7, α1T260Cβ2γ2 GABAA receptor (Rattus norvegicus, UniProt P18508+P62813+P63138, T287C); format: cell-based; details: read-out: IC50 mean ± SD for inhibition of GABA-activated current
T7 construct: expressed in transfected cells; host or cells: Xenopus laevis oocytes, cRNA injection
Experimental: as §2

[13] = target: T8, α1V256Cβ2γ2 GABAA receptor (Rattus norvegicus, UniProt P18508+P62813+P63138, V283C); assay: Two-electrode voltage clamp, mutant α1V256Cβ2γ2 in Xenopus oocytes; format: cell-based; details: for IC50: read-out: IC50 mean ± SD for inhibition of GABA-activated current
T8 construct: expressed in transfected cells; host or cells: Xenopus laevis oocytes, cRNA injection
Experimental: as §2

[14] = target: T9, α1β2δ rat GABAA receptors (Rattus norvegicus, UniProt P18506+P62813+P63138); assay: Concentration inhibition curve, α1β2δ GABAA receptors in Xenopus oocytes; format: cell-based; details: GABA EC10; n = 4
T9 construct: expressed in transfected cells; host or cells: Xenopus laevis oocytes, cRNA injection

[15] = target: T10, α1β2γ2 rat GABAA receptors (Rattus norvegicus); assay: Concentration inhibition curve, first receptor named in b22 / Figure 4A; format: cell-based; details: GABA EC10; n = 4; receptor printed as α1β2γ2
T10 construct: expressed in transfected cells; host or cells: Xenopus laevis oocytes, cRNA injection
Experimental: as §1

[16] = read-out: IC50 mean ± SD for inhibition of GABA-activated current
[17] = wild type, end of 1 min co-application, −80 mV, read-out: IC50 mean ± SD for inhibition of GABA-activated current

N#CC1=C(C#N)C(C#N)C(C#N)=C1C#N [PCCP^−, pentacyanocyclopentdienyl anion]
Prevention of the MTSET^+ + GABA induced change in inhibitor sensitivity [1]: could be prevented
Inhibition by PCCP^− [2]: similarly inhibited
Change in ratio of % inhibition after/before MTSET^+ treatment in the absence of GABA [3]: significant increase
Change in % inhibition after MTSET^+ + GABA treatment ([3]; printed α1T263Cβ2γ2, 5 mM MTSET^+ + 100 µM GABA, inhibitor at about IC50): significant increase
Inhibition by PCCP^− [4]: similarly inhibited
Change in % inhibition after MTSET^+ + GABA treatment [5]: significant increase
IC50 [5, 16]: 770 ± 110 nM
Change in % inhibition after MTSET^+ + GABA treatment [6]: significant increase
IC50 [6, 16]: 3150 ± 480 nM
IC50 [7]: 2630 ± 310 nM
Reduction in sensitivity (difference in IC50) between wild type and mutant receptors [8]: about 2 fold
IC50 (ELIC): ~100000 nM
Concentration inducing a current in non-injected oocytes (non-injected oocytes): ≥ 10 µM
IC50 [9]: 46400 ± 7250 nM
Concentrations inducing an open-channel block ([10]; GABA EC1, apparent desensitization and off-current): > 1 µM
Inhibition of recombinant α1β2γ2 GABAA receptors, preliminary evaluation ([10]; compounds 1–4 tested): highly active
Concentrations at which currents were stimulated ([10]; currents elicited by low GABA (EC1), highly variable between oocytes): 0.3 to 10 µM
δ, fraction of the voltage field sensed by the blocker from the outside of the membrane ([10]; estimated with Woodhull equation from IC50 at −120, −80, −40 mV): ~0.7
IC50 ([10]; membrane potential −40 mV, n = 3, read-out: IC50): 1800 ± 800 nM
IC50 ([10]; membrane potential −80 mV, voltage-dependence experiment, n = 3, read-out: IC50): 6300 ± 1300 nM
IC50 ([10]; membrane potential −120 mV, n = 3, read-out: IC50): 16200 ± 1300 nM
Shift of the GABA concentration response curve ([10]; presence of 2 µM or 10 µM PCCP^−, currents after 1 min GABA): leftward shift
IC50 [10, 17]: 2600 nM and 2580 nM
Effect of MTSET^+ + GABA treatment on the affinity for PCCP^− ([10]; wild type, treatment applied for 1 min): no effect
Change in % inhibition after MTSET^+ + GABA treatment [11]: significant increase
IC50 [12]: 850 ± 460 nM
Change in % inhibition after MTSET^+ + GABA treatment [13]: significant increase
IC50 [13]: 62200 ± 22400 nM
IC50 [14]: 710 ± 280 nM
IC50 [15]: 12500 ± 4800 nM

picrotoxin [reference compound]
Prevention of the MTSET^+ + GABA induced change in inhibitor sensitivity [1]: could not be prevented
Reduction in sensitivity (difference in IC50) between wild type and mutant receptors [8]: 7 fold
IC50 [10, 17]: 2020 ± 890 nM
Change in % inhibition after MTSET^+ + GABA treatment ([11]; α1T260C mutant, 5 mM MTSET^+ + 100 µM GABA, inhibitor at about IC50): significant decrease
IC50 ([12]; α1T260C mutant, GABA EC10, −80 mV, before MTSET^+ treatment): 1310 ± 410 nM
Change in % inhibition after MTSET^+ + GABA treatment [13]: significant decrease
IC50 [13]: 740 ± 360 nM

C[N+](C)(C)CCSS(C)(=O)=O [MTSET^+, reference compound]
Effect of treatment with cysteine reactive compound on wild type receptors ([10]; wild type, preliminary experiments): unaffected
